In patent US20260224582A1, “Heterobicyclic amides as inhibitors of CD38” (Cerevance, Inc., priority 2022, published 2026) one finds IC50 data, which are given here for eleven compounds.

The target of one test is T1, Recombinant mouse CD38 (Mus musculus, UniProt P56528).
T1 sequence (P56528 1-304): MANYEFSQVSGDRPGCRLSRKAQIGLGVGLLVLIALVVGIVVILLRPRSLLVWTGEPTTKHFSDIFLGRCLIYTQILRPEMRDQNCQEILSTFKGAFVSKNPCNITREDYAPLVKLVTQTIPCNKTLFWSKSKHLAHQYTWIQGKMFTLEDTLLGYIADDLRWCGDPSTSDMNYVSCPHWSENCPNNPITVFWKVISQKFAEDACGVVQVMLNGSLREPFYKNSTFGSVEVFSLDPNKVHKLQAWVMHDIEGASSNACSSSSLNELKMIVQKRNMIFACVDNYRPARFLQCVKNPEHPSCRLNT
Kind of test: Mouse CD38 hydrolase assay (fluorescence-based, ε-NAD substrate). The settings on record: recombinant mouse CD38 0.4 nM, 12 μM ε-NAD, 30 min preincubation at 25° C. It counts as biochemical. The gist of the method:
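Recombinant mouse CD38 (0.4 nM) preincubated with compound 30 min at 25° C in PBS without Ca/Mg, 0.005% BSA, pH 7.4, then 12 μM ε-NAD added. Fluorescence (ex 300/em 410 nm) read at 0 and 6 min, difference used. IC50 from 10-point half-log curve, four-parameter fit, normalised to tool-inhibitor low control.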

The target in the next test is T2, Recombinant human CD38 (Homo sapiens, UniProt P28907).
T2 sequence (P28907 1-300): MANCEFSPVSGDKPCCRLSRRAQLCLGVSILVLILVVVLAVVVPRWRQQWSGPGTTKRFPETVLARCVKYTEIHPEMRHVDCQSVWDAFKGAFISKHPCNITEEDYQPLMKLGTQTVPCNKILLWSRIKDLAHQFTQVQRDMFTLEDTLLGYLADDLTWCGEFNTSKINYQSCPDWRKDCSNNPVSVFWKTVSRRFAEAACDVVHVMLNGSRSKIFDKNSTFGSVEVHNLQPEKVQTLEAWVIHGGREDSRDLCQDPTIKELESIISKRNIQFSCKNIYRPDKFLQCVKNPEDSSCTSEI
Kind of test: Human CD38 hydrolase assay (fluorescence-based, ε-NAD substrate). The settings on record: recombinant human CD38 0.8 nM, 4 μM ε-NAD, 30 min preincubation at 25° C. It counts as biochemical. The gist of the method: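 Recombinant human CD38 (0.8 nM) preincubated 30 min at 25 °C with compound in PBS without Ca2+/Mg2+, 0.005% BSA, pH 7.4; reaction started with 4 μM ε-NAD. Fluorescence (ex 300/em 410 nm) change over 10 min converted to percent inhibition against tool-inhibitor controls; IC50 from 10-point half-log curves, four-parameter fit.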

In the case of `O=C(N[C@H]1CC[C@H](N2CC[C@H](F)C2)CC1)c1nc(-n2ccnc2)nn2cccc12` [Example 13, N-((1S,4r)-4-((S)-3-fluoropyrrolidin-1-yl)cyclohexyl)-2-(1H-imidazol-1-yl)pyrrolo[2,1-f][1,2,4]triazine-4-carboxamide], the 50% inhibitory concentration (IC50) at Recombinant mouse CD38 and on Recombinant human CD38 was no more than 40 nM throughout.

For `O=C(N[C@H]1CC[C@H](N2CCC(F)(F)C2)CC1)c1cn2ccnc2c(-n2ccnc2)n1` [Example 41, N-((1r,4r)-4-(3,3-difluoropyrrolidin-1-yl)cyclohexyl)-8-(1H-imidazol-1-yl) imidazo[1,2-a]pyrazine-6-carboxamide], the concentration for half-maximal inhibition (IC50) on Recombinant mouse CD38 was no more than 40 nM; at Recombinant human CD38, no more than 100 nM.

Consider `O=C(N[C@H]1CC[C@H](N2CC[C@@H](F)C2)CC1)c1nc(-n2ccnc2)nn2cccc12` [Example 14, N-((1R,4r)-4-((R)-3-fluoropyrrolidin-1-yl)cyclohexyl)-2-(1H-imidazol-1-yl)pyrrolo[2,1-f][1,2,4]triazine-4-carboxamide], for which the half-inhibitory concentration (IC50) on Recombinant mouse CD38 and at Recombinant human CD38 was no more than 40 nM in each case.

For the compound `O=C(N[C@H]1CC[C@H](NCC(F)(F)F)CC1)c1nc(-n2ccnc2)nn2cccc12` [Example 29, 2-(1H-imidazol-1-yl)-N-((1r,4r)-4-((2,2,2-trifluoroethyl)amino)cyclohexyl)pyrrolo[2,1-f][1,2,4]triazine-4-carboxamide], the IC50 at Recombinant mouse CD38 and at Recombinant human CD38 was no more than 40 nM each time.

In the case of `O=C(N[C@H]1CC[C@H](N2CCC(F)(F)C2)CC1)c1cn2ncnc2c(-n2ccnc2)n1` [Example 48, N-((1r,4r)-4-(3,3-difluoropyrrolidin-1-yl)cyclohexyl)-8-(1H-imidazol-1-yl)-[1,2,4]triazolo[1,5-a]pyrazine-6-carboxamide], the 50% inhibitory concentration (IC50) on Recombinant mouse CD38 was no more than 40 nM; at Recombinant human CD38, no more than 100 nM.

On to `O=C(N[C@H]1CC[C@H](NCC(F)(F)F)CC1)c1nc(-n2ccnc2)nc2ncccc12` [Example 4, 2-(1H-imidazol-1-yl)-N-((1r,4r)-4-((2,2,2-trifluoroethyl)amino)cyclohexyl)pyrido[2,3-d]pyrimidine-4-carboxamide], for which the 50% inhibitory concentration (IC50) on Recombinant mouse CD38 and on Recombinant human CD38 was no more than 40 nM throughout.

On to `O=C(N[C@H]1CC[C@H](NCC(F)(F)F)CC1)c1cn2nccc2c(-n2ccnc2)n1` [Example 21, 4-(1H-imidazol-1-yl)-N-((1r,4r)-4-((2,2,2-trifluoroethyl)amino)cyclohexyl)pyrazolo[1,5-a]pyrazine-6-carboxamide], for which the half-maximal inhibitory concentration (IC50) on Recombinant mouse CD38 and on Recombinant human CD38 was no more than 40 nM in each case.

With `O=C(N[C@H]1CC[C@H](N2CC(F)(F)C2)CC1)c1cn2ncnc2c(-n2ccnc2)n1` [Example 45, N-((1r,4r)-4-(3,3-difluoroazetidin-1-yl)cyclohexyl)-8-(1H-imidazol-1-yl)-[1,2,4]triazolo[1,5-a]pyrazine-6-carboxamide], the half-maximal inhibitory concentration (IC50) on Recombinant mouse CD38 and on Recombinant human CD38 was no more than 40 nM in each case.

`O=C(N[C@H]1CC[C@H](NCC(F)(F)F)CC1)c1cn2ncnc2c(-n2ccnc2)n1` [Example 20, 8-(1H-imidazol-1-yl)-N-((1r,4r)-4-((2,2,2-trifluoroethyl)amino)cyclohexyl)-[1,2,4]triazolo[1,5-a]pyrazine-6-carboxamide]: the IC50 on Recombinant mouse CD38 and at Recombinant human CD38 was no more than 40 nM throughout.

For `O=C(N[C@H]1CC[C@H](N2CCC(F)(F)C2)CC1)c1nc(-n2ccnc2)nn2cccc12` [Example 12, N-((1r,4r)-4-(3,3-difluoropyrrolidin-1-yl)cyclohexyl)-2-(1H-imidazol-1-yl)pyrrolo[2,1-f][1,2,4]triazine-4-carboxamide], the 50% inhibitory concentration (IC50) at Recombinant mouse CD38 and at Recombinant human CD38 was no more than 40 nM in each case.

Regarding `O=C(N[C@H]1CC[C@H](NCC(F)(F)F)CC1)c1cn2ccnc2c(-n2ccnc2)n1` [Example 19, 8-(1H-imidazol-1-yl)-N-((1r,4r)-4-((2,2,2-trifluoroethyl)amino)cyclohexyl) imidazo[1,2-a]pyrazine-6-carboxamide], the IC50 at Recombinant mouse CD38 and on Recombinant human CD38 was no more than 40 nM each time.

For orientation: IC50 means the concentration needed to halve the response being measured.
